# Source: US20230257396A1, “MACROCYCLES AND THEIR USE” (BLOSSOMHILL THERAPEUTICS, INC., priority 2020, published 2023)
# Key:
# Assay in all cases: KINOMEscan kinase binding assay (Eurofins/DiscoveRx), % Ctrl
# Settings in all cases: 1 μM
# kinases [1] = biological target: T1, kinases (Homo sapiens, UniProt P00519)
# T1 construct: purchased Eurofins/DiscoveRx; host or cells: E. coli BL21-derived host (T7 phage display) for most kinases; HEK-293 for the rest
# In short: (§1)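 Competition binding, 1 h RT: phage-tagged or HEK-293-expressed DNA-tagged kinase + immobilized ligand + compound. Eluate kinase by qPCR. % Ctrl = (test − positive ctrl)/(negative ctrl − positive ctrl) × 100; lower means stronger binding.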
# kinases [2] = biological target: T2, kinases (Homo sapiens, UniProt P00519, H396P)
# T2 construct: purchased Eurofins/DiscoveRx; host or cells: E. coli BL21-derived host (T7 phage display) for most kinases; HEK-293 for the rest
# In short: as §1
# kinases [3] = biological target: T3, kinases (Homo sapiens, UniProt P00519, M351T)
# T3 construct: purchased Eurofins/DiscoveRx; host or cells: E. coli BL21-derived host (T7 phage display) for most kinases; HEK-293 for the rest
# In short: as §1
# kinases [4] = biological target: T4, kinases (Homo sapiens, UniProt P00519, Y253F)
# T4 construct: purchased Eurofins/DiscoveRx; host or cells: E. coli BL21-derived host (T7 phage display) for most kinases; HEK-293 for the rest
# In short: as §1
# kinases [5] = biological target: T5, kinases (Homo sapiens, UniProt P00533, DEL752-759)
# T5 construct: purchased Eurofins/DiscoveRx; host or cells: E. coli BL21-derived host (T7 phage display) for most kinases; HEK-293 for the rest
# In short: as §1
# kinases [6] = biological target: T6, kinases (Homo sapiens, UniProt P00533, G719C)
# T6 construct: purchased Eurofins/DiscoveRx; host or cells: E. coli BL21-derived host (T7 phage display) for most kinases; HEK-293 for the rest
# In short: as §1
# kinases [7] = biological target: T7, kinases (Homo sapiens, UniProt P00533, T790M)
# T7 construct: purchased Eurofins/DiscoveRx; host or cells: E. coli BL21-derived host (T7 phage display) for most kinases; HEK-293 for the rest
# In short: as §1
# kinases [8] = biological target: T8, kinases (Homo sapiens, UniProt P07949)
# T8 construct: purchased Eurofins/DiscoveRx; host or cells: E. coli BL21-derived host (T7 phage display) for most kinases; HEK-293 for the rest
# T8 sequence (P07949 29-1114): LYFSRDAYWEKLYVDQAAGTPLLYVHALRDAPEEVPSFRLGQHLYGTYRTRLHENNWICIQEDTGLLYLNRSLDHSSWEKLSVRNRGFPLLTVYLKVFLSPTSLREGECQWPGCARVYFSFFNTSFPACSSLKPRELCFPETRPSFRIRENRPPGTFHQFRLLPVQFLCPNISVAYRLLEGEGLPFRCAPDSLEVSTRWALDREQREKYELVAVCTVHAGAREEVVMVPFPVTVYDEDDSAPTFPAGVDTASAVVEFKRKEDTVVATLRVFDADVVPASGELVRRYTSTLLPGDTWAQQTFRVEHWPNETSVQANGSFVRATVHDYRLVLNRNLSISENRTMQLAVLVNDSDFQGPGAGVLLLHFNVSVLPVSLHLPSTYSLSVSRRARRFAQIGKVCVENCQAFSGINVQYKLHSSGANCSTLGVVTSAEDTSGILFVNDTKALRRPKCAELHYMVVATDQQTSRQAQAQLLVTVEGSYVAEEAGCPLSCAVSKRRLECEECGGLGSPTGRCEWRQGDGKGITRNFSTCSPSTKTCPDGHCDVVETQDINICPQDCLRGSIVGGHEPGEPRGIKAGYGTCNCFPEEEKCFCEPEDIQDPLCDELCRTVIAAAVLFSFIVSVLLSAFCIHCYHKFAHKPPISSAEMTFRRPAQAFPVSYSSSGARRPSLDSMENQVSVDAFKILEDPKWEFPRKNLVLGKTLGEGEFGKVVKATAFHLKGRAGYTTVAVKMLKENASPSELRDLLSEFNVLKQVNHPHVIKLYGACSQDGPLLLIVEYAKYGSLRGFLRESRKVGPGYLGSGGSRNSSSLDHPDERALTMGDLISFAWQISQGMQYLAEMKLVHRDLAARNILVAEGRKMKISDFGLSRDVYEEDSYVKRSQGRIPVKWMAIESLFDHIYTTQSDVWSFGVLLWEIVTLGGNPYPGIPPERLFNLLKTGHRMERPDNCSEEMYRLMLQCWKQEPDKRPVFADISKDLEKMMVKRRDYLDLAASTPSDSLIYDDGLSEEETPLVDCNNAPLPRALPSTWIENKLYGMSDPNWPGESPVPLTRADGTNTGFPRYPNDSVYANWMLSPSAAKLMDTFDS
# In short: as §1
# kinases [9] = biological target: T9, kinases (Homo sapiens, UniProt P07949, M918T)
# T9 construct: purchased Eurofins/DiscoveRx; host or cells: E. coli BL21-derived host (T7 phage display) for most kinases; HEK-293 for the rest
# T9 sequence (P07949 29-1114 M918T): as the sequence (P07949 29-1114) above, with M890T counted along it
# In short: as §1
# kinases [10] = biological target: T10, kinases (Homo sapiens, UniProt P07949, V804L)
# T10 construct: purchased Eurofins/DiscoveRx; host or cells: E. coli BL21-derived host (T7 phage display) for most kinases; HEK-293 for the rest
# T10 sequence (P07949 29-1114 V804L): as the sequence (P07949 29-1114) above, with V776L counted along it
# In short: as §1
# kinases [11] = biological target: T11, kinases (Homo sapiens, UniProt P09619)
# T11 construct: purchased Eurofins/DiscoveRx; host or cells: E. coli BL21-derived host (T7 phage display) for most kinases; HEK-293 for the rest
# T11 sequence (P09619 33-1106): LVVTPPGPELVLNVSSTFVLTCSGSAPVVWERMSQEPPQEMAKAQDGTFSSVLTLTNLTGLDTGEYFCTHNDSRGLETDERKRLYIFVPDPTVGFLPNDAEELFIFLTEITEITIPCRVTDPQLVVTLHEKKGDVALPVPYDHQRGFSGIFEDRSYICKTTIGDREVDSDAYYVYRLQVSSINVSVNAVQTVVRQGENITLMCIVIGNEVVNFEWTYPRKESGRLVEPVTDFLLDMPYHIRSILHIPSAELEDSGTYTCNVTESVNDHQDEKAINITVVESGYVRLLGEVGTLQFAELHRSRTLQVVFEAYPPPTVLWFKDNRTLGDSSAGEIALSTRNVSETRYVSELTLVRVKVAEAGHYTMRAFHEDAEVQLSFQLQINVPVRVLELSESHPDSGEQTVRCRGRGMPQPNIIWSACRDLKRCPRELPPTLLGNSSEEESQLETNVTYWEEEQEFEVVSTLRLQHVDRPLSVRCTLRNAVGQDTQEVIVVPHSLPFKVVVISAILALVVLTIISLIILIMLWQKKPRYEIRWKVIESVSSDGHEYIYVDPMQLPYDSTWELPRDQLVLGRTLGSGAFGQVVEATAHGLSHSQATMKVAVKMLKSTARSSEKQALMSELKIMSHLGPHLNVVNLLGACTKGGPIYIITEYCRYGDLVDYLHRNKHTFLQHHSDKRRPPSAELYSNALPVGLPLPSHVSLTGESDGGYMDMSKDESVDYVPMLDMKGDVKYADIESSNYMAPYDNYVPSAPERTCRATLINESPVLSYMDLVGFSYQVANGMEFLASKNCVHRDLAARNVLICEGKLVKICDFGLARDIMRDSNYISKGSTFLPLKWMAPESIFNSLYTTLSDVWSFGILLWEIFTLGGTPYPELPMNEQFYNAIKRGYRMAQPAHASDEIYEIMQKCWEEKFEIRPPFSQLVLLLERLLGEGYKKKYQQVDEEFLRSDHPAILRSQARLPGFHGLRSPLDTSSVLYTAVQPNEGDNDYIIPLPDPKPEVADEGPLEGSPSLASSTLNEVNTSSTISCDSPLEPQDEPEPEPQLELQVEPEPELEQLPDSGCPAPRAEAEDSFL
# In short: as §1
# kinases [12] = biological target: T12, kinases (Homo sapiens, UniProt P10721, L576P)
# T12 construct: purchased Eurofins/DiscoveRx; host or cells: E. coli BL21-derived host (T7 phage display) for most kinases; HEK-293 for the rest
# T12 sequence (P10721 26-976 L576P): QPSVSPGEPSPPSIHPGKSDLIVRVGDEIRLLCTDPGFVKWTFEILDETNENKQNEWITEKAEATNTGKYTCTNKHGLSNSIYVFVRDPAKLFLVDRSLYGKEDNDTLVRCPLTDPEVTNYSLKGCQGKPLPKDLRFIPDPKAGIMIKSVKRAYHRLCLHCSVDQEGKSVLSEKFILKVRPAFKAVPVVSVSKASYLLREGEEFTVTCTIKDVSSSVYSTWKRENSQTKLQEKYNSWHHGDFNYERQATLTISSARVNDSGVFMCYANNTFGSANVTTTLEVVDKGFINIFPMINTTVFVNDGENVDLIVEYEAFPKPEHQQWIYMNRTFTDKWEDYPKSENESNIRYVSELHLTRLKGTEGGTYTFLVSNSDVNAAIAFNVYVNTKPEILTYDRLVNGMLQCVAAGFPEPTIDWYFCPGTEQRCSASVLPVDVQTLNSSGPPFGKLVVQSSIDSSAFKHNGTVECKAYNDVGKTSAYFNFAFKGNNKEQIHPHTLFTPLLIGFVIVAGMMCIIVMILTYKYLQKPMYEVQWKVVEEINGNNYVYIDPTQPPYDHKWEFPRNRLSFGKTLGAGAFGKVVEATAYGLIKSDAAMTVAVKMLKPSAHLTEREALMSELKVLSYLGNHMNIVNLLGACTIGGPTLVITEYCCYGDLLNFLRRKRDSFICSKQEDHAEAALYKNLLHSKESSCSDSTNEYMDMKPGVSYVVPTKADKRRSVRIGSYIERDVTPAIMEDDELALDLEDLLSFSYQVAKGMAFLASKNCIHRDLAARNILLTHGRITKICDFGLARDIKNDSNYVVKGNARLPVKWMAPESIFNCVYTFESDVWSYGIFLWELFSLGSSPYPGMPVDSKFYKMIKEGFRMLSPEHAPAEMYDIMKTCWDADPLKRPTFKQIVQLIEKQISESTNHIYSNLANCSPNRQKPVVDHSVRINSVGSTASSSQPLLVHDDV
# In short: as §1
# kinases [13] = biological target: T13, kinases (Homo sapiens, UniProt P10721, V559D/V654A)
# T13 construct: purchased Eurofins/DiscoveRx; host or cells: E. coli BL21-derived host (T7 phage display) for most kinases; HEK-293 for the rest
# T13 sequence (P10721 26-976 V559D/V654A): as the sequence (P10721 26-976 L576P) above, with V534D, P551L, V629A counted along it
# In short: as §1
# kinases [14] = biological target: T14, kinases (Homo sapiens, UniProt P36888)
# T14 construct: purchased Eurofins/DiscoveRx; host or cells: E. coli BL21-derived host (T7 phage display) for most kinases; HEK-293 for the rest
# T14 sequence (P36888 27-993): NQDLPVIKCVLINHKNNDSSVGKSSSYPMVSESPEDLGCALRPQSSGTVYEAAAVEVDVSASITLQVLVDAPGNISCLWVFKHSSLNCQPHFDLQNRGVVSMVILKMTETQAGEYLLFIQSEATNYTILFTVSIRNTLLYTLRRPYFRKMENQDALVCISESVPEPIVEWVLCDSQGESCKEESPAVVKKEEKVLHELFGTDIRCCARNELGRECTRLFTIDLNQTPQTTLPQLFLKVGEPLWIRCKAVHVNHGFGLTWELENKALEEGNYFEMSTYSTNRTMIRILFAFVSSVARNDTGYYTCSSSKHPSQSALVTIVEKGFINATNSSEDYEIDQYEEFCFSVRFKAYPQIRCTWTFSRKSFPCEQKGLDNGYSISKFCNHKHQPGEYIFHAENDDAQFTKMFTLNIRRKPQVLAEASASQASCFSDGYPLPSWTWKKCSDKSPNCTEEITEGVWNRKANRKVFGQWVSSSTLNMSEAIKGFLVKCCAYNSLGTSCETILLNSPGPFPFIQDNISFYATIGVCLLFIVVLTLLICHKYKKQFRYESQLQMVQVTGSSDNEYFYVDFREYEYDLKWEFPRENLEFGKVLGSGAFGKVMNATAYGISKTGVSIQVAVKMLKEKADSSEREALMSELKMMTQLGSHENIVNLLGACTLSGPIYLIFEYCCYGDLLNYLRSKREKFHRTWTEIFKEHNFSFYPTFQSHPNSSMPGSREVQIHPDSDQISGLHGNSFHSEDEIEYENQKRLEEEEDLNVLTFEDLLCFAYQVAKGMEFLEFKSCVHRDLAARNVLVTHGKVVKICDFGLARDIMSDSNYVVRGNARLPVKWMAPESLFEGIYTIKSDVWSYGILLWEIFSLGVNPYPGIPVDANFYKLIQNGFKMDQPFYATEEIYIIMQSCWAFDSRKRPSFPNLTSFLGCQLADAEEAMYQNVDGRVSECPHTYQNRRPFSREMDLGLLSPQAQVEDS
# In short: as §1
# [15] = target ABL1(H396P)-nonphosphorylated
# [16] = target ABL1(H396P)-phosphorylated
# [17] = target ABL1(M351T)-phosphorylated
# [18] = target ABL1(Y253F)-phosphorylated
SMILES,"% Ctrl, ABL1-nonphosphorylated (kinases [1]; ABL1-nonphosphorylated) [% Ctrl]","% Ctrl, ABL1-phosphorylated (kinases [1]; ABL1-phosphorylated) [% Ctrl]","% Ctrl, ABL1(H396P)-nonphosphorylated (kinases [2]; ABL1(H396P)-nonphosphorylated) [% Ctrl]","% Ctrl, ABL1(H396P)-phosphorylated (kinases [2]; ABL1(H396P)-phosphorylated) [% Ctrl]","% Ctrl, ABL1(M351T)-phosphorylated (kinases [3]; ABL1(M351T)-phosphorylated) [% Ctrl]","% Ctrl, ABL1(Y253F)-phosphorylated (kinases [4]; ABL1(Y253F)-phosphorylated) [% Ctrl]","% Ctrl, EGFR(S752-I759del) (kinases [5]; EGFR(S752-I759del)) [% Ctrl]","% Ctrl, EGFR(G719C) (kinases [6]; EGFR(G719C)) [% Ctrl]","% Ctrl, EGFR(T790M) (kinases [7]; EGFR(T790M)) [% Ctrl]","% Ctrl, RET (kinases [8]; RET) [% Ctrl]","% Ctrl, RET(M918T) (kinases [9]; RET(M918T)) [% Ctrl]","% Ctrl, RET(V804L) (kinases [10]; RET(V804L)) [% Ctrl]","% Ctrl, PDGFRB (kinases [11]; PDGFRB) [% Ctrl]","% Ctrl, KIT(L576P) (kinases [12]; KIT(L576P)) [% Ctrl]","% Ctrl, KIT(V559D, V654A) (kinases [13]; KIT(V559D, V654A)) [% Ctrl]","% Ctrl, FLT3 (kinases [14]; FLT3) [% Ctrl]","% Ctrl, FLT3-autoinhibited (kinases [14]; FLT3-autoinhibited) [% Ctrl]","% Ctrl, ABL1-nonphosphorylated (kinases [1]; target ABL1-nonphosphorylated) [% Ctrl]","% Ctrl, ABL1-phosphorylated (kinases [1]; target ABL1-phosphorylated) [% Ctrl]","% Ctrl, ABL1(H396P)-nonphosphorylated (kinases [2]; [15]) [% Ctrl]",further results
"Cc1cc2c([nH]1)/C=C1\C(=O)Nc3ccc(cc31)-c1cnn(C)c1COCCN(C)C2=O [Ex. 124, [3a(4)Z]-6,9,14-trimethyl-10,11,13,14-tetrahydro-2H-1,17-(ethanediylidene)pyrazolo[4,3-m]dipyrrolo[3,2-f:3′,4′-i][1,4]oxazacyclopentadecine-3,8(5H,9H)-dione]",0,0,0.5,0,0.05,0,68,87,8.5,0,0,0,0.35,4.2,7.7,0.15,0.35,–,–,–,–
"Cc1cc2c([nH]1)/C=C1\C(=O)Nc3ccc(cc31)-c1c(noc1C(C)C)COCCN(C)C2=O [Ex. 161, [3a(4)Z]-9-methyl-16-(propan-2-yl)-10,11-dihydro-2H,13H-1,17-(ethanediylidene)[1,2]oxazolo[4,3-m]dipyrrolo[3,2-f:3′,4′-i][1,4]oxazacyclopentadecine-3,8(5H,9H)-dione]",–,–,–,–,–,–,–,–,–,–,–,–,–,–,–,–,–,100,97,91,"% Ctrl, ABL1(H396P)-phosphorylated (kinases [2]; [16]): 100 % Ctrl; % Ctrl, ABL1(M351T)-phosphorylated (kinases [3]; [17]): 81 % Ctrl; % Ctrl, ABL1(Y253F)-phosphorylated (kinases [4]; [18]): 78 % Ctrl; % Ctrl, EGFR(S752-I759del) (kinases [5]; target EGFR(S752-I759del)): 81 % Ctrl; % Ctrl, EGFR(G719C) (kinases [6]; target EGFR(G719C)): 89 % Ctrl; % Ctrl, EGFR(T790M) (kinases [7]; target EGFR(T790M)): 100 % Ctrl; % Ctrl, RET (kinases [8]; target RET): 97 % Ctrl; % Ctrl, RET(M918T) (kinases [9]; target RET(M918T)): 92 % Ctrl; % Ctrl, RET(V804L) (kinases [10]; target RET(V804L)): 72 % Ctrl; % Ctrl, PDGFRB (kinases [11]; target PDGFRB): 98 % Ctrl; % Ctrl, KIT(L576P) (kinases [12]; target KIT(L576P)): 100 % Ctrl; % Ctrl, KIT(V559D, V654A) (kinases [13]; target KIT(V559D, V654A)): 87 % Ctrl; % Ctrl, FLT3 (kinases [14]; target FLT3): 100 % Ctrl; % Ctrl, FLT3-autoinhibited (kinases [14]; target FLT3-autoinhibited): 100 % Ctrl"
"Cc1cc2c([nH]1)/C=C1\C(=O)Nc3ccc(cc31)-c1cnn(C)c1CN(C)CCN(C)C2=O [Ex. 126, [3a(4)Z]-6,9,12,14-tetramethyl-9,10,11,12,13,14-hexahydro-1,17-(ethanediylidene)pyrazolo[4,3-m]dipyrrolo[3,2-f:3′,4′-i][1,4]diazacyclopentadecine-3,8(2H,5H)-dione]",0,0.1,0,0.1,0.05,0.25,32,86,1.6,0,0,0,0,0,0.4,0.2,0.25,–,–,–,–
"Cc1cc2c([nH]1)/C=C1\C(=O)Nc3cc(Cl)c(cc31)OCCO[C@@H](C(=O)N(C)C)CN(C)C2=O [Ex. 137, [7R,16a(17)Z]-19-chloro-N,N,2,5-tetramethyl-4,16-dioxo-4,5,6,7,9,10,15,16-octahydro-1H-12,14-(ethanediylidene)dipyrrolo[3,2-i:3′,4′-l][1,4,7]dioxazacyclopentadecine-7-carboxamide]",43,61,38,65,51,60,98,100,94,8,6.4,37,90,39,73,55,77,–,–,–,–
"Cc1cc2c([nH]1)/C=C1\C(=O)Nc3cc(Cl)c(cc31)SCCOCCN(C)C2=O [Ex. 169, [16a(17)Z]-19-chloro-5-methyl-6,7,9,10-tetrahydro-1H-12,14-(ethanediylidene)dipyrrolo[3,4-g:2′,3′-j][1,4,13]oxathiazacyclopentadecine-4,16(5H,15H)-dione]",–,–,–,–,–,–,–,–,–,–,–,–,–,–,–,–,–,0,0,0,"% Ctrl, ABL1(H396P)-phosphorylated (kinases [2]; [16]): 0 % Ctrl; % Ctrl, ABL1(M351T)-phosphorylated (kinases [3]; [17]): 0.1 % Ctrl; % Ctrl, ABL1(Y253F)-phosphorylated (kinases [4]; [18]): 0.1 % Ctrl; % Ctrl, EGFR(S752-I759del) (kinases [5]; target EGFR(S752-I759del)): 61 % Ctrl; % Ctrl, EGFR(G719C) (kinases [6]; target EGFR(G719C)): 100 % Ctrl; % Ctrl, EGFR(T790M) (kinases [7]; target EGFR(T790M)): 69 % Ctrl; % Ctrl, RET (kinases [8]; target RET): 0 % Ctrl; % Ctrl, RET(M918T) (kinases [9]; target RET(M918T)): 0 % Ctrl; % Ctrl, RET(V804L) (kinases [10]; target RET(V804L)): 0.2 % Ctrl; % Ctrl, PDGFRB (kinases [11]; target PDGFRB): 0.9 % Ctrl; % Ctrl, KIT(L576P) (kinases [12]; target KIT(L576P)): 0 % Ctrl; % Ctrl, KIT(V559D, V654A) (kinases [13]; target KIT(V559D, V654A)): 13 % Ctrl; % Ctrl, FLT3 (kinases [14]; target FLT3): 1.8 % Ctrl; % Ctrl, FLT3-autoinhibited (kinases [14]; target FLT3-autoinhibited): 12 % Ctrl"
